41 compounds from ChEMBL document CHEMBL5113421, “Development of novel conformationally restricted selective Clk1/4 inhibitors through creating an intramolecular hydrogen bond involving an imide linker” (Eur J Med Chem, 2022) can be followed below.

In assay [1] the target is T1, Dual specificity protein kinase CLK1 (Homo sapiens, UniProt P49759). Briefly: Inhibition of human recombinant GST-tagged Clk1 (129 to 484 residues) expressed in Escherichia coli expression system at 100 nM using GRSRSRSRSRSRSRS peptide as substrate incubated for 15 mins in presence of ATP by phosphoimager analysis relative to control.
Target sequence in this assay (P49759 whole entry, looked up, the tested form may be a part): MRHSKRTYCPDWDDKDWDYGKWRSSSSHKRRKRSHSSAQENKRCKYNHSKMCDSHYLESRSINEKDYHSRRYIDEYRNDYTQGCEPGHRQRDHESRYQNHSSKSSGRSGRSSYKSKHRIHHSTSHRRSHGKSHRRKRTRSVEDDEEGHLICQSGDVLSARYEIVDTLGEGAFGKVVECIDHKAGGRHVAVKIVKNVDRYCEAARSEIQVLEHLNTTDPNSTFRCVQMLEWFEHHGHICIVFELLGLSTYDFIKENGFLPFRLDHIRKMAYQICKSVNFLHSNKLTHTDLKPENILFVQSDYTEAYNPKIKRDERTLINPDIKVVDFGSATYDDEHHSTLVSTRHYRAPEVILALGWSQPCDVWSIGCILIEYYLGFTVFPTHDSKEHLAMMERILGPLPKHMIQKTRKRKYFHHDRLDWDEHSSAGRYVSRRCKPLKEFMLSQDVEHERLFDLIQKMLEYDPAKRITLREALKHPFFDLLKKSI
Assay [2] has as its target T1, Dual specificity protein kinase CLK1. Nature of the assay: Inhibition of human recombinant GST-tagged Clk1 (129 to 484 residues) expressed in Escherichia coli expression system using GRSRSRSRSRSRSRS peptide as substrate incubated for 15 mins in presence of ATP by phosphoimager analysis.
Target sequence in this assay (P49759 whole entry, the tested form may be a part): as the sequence (P49759 whole entry, looked up, the tested form may be a part) above
The test system of another assay is T-24. Briefly: Antiproliferative activity against human T24 cells assessed as cell growth inhibition measured after 3 days by MTT assay. Format: functional. As to conditions: T-24, 72 h, time 3 day.
Assay [3] concerns the target Dual specificity tyrosine-phosphorylation-regulated kinase 1A (Homo sapiens) (UniProt Q13627). Briefly: Inhibition of human recombinant GST tagged full length DYRK1A expressed in Baculovirus expression system at 1 uM relative to control.
Assay [4] addresses T2, Dual specificity protein kinase CLK2 (Homo sapiens, UniProt P49760). Nature of the assay: Inhibition of human recombinant GST-tagged Clk2 expressed in Baculovirus expression system at 0.25 uM using GRSRSRSRSRSRSRS peptide as substrate incubated for 15 mins in presence of ATP by phosphoimager analysis relative to control.
Target sequence in this assay (P49760 whole entry, looked up): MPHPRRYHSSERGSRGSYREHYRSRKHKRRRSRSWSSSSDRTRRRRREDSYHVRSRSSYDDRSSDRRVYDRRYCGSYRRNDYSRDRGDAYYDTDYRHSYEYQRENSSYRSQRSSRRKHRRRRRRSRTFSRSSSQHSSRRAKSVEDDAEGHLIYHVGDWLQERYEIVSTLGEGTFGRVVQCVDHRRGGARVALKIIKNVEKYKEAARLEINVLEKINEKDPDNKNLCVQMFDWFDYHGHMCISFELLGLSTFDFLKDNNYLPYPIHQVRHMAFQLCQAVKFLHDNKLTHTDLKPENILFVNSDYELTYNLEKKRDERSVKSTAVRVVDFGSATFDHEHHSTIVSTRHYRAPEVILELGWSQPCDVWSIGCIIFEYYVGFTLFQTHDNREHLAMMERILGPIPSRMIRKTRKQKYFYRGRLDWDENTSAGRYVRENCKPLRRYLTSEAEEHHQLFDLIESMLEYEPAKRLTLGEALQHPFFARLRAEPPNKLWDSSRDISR
Assay [5] is filed under the species Homo sapiens. Nature of the assay: Inhibition of CK2 (unknown origin) at 1 uM relative to control.
Assay [6] concerns the target Dual specificity protein kinase CLK3 (Homo sapiens) (UniProt P49761). Briefly: Inhibition of human recombinant GST-tagged full length CLK3 expressed in Baculovirus expression system at 1 uM relative to control.
The target of assay [7] is T3, Serine/threonine-protein kinase haspin (Homo sapiens) (UniProt Q8TF76).
T3 sequence (whole entry): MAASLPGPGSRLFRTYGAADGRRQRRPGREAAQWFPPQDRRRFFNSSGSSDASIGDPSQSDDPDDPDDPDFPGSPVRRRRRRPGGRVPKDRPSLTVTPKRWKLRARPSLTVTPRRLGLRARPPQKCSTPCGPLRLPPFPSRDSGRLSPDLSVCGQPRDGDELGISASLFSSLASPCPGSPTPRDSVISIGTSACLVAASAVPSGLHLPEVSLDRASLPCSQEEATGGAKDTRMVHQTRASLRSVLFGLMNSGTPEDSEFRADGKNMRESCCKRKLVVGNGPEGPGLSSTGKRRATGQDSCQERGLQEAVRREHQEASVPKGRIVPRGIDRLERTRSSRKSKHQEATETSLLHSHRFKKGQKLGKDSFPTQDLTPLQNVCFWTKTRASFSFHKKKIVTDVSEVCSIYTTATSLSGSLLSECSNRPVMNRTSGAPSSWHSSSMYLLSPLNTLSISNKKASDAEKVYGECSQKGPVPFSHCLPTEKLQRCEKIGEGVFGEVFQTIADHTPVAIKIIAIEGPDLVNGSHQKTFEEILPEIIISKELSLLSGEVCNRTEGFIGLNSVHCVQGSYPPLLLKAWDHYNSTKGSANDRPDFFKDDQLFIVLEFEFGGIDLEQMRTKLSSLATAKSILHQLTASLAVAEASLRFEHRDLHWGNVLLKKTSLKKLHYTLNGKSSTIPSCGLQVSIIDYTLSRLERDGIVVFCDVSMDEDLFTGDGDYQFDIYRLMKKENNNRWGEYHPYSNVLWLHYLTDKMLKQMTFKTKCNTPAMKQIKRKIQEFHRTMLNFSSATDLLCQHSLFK
Nature of the assay: Inhibition of human recombinant GST tagged full length Haspin catalytic domain expressed in Baculovirus expression system at 1 uM relative to control.

The species named for assay [8] is Homo sapiens. Briefly: Selectivity index, ratio of IC50 for human Clk2 to IC50 for human Clk1 by phosphoimager analysis.
For assay [9], the target named is Casein kinase I isoform delta (Homo sapiens) (UniProt P48730). Nature of the assay: Inhibition of human recombinant GST tagged full length CSNK1D expressed in Baculovirus expression system at 1 uM relative to control.
Assay [10] deals with Homeodomain-interacting protein kinase 1 (Homo sapiens) (UniProt Q86Z02). Briefly: Inhibition of human recombinant GST tagged HIPK1 expressed in Baculovirus expression system at 1 uM relative to control.
In assay [11] the target is T2, Dual specificity protein kinase CLK2. Nature of the assay: Inhibition of human recombinant GST-tagged Clk2 expressed in Baculovirus expression system using GRSRSRSRSRSRSRS peptide as substrate incubated for 15 mins in presence of ATP by phosphoimager analysis.
Target sequence in this assay (P49760 whole entry): as the sequence (P49760 whole entry, looked up) above
Assay [12] deals with Dual specificity protein kinase CLK4 (Homo sapiens, UniProt Q9HAZ1). Nature of the assay: Inhibition of human recombinant GST tagged full length CLK4 expressed in Baculovirus expression system at 1 uM relative to control.
The target in assay [13] is BDNF/NT-3 growth factors receptor (Homo sapiens) (UniProt Q16620). Briefly: Inhibition of human recombinant His tagged full length TRKB expressed in Baculovirus expression system at 1 uM relative to control.
The target of assay [14] is SRSF protein kinase 1 (Homo sapiens) (UniProt Q96SB4). Briefly: Inhibition of human recombinant His tagged full length SRPK1 expressed in Baculovirus expression system at 1 uM relative to control.
Assay [15] concerns the target Serine/threonine-protein kinase pim-1 (Homo sapiens) (UniProt P11309). Nature of the assay: Inhibition of human recombinant His tagged full length Pim1 expressed in Baculovirus expression system at 1 uM relative to control.
The species entered for assay [16] is Homo sapiens. Briefly: Selectivity ratio of IC50 for human Clk2 to IC50 for human Clk1 by ADP-Glo assay. Background: In ADP-Glo the light output rises with the ADP produced.
For assay [17], the species on record is Homo sapiens. Nature of the assay: Selectivity ratio of IC50 for human Clk2 to IC50 for human Clk1.
The species entered for assay [18] is Homo sapiens. Nature of the assay: Selectivity ratio of IC50 for human DYRK1A to IC50 for human Clk1.

A word on the inhibition: it is how much of the control response was suppressed. By IC50 is commonly meant the midpoint of a concentration-inhibition curve. In general, GI50 refers to the concentration that inhibits growth by half.

Bounds are passed on as bounds.

SRSF protein kinase 1 (Homo sapiens), sequence (Q96SB4 whole entry): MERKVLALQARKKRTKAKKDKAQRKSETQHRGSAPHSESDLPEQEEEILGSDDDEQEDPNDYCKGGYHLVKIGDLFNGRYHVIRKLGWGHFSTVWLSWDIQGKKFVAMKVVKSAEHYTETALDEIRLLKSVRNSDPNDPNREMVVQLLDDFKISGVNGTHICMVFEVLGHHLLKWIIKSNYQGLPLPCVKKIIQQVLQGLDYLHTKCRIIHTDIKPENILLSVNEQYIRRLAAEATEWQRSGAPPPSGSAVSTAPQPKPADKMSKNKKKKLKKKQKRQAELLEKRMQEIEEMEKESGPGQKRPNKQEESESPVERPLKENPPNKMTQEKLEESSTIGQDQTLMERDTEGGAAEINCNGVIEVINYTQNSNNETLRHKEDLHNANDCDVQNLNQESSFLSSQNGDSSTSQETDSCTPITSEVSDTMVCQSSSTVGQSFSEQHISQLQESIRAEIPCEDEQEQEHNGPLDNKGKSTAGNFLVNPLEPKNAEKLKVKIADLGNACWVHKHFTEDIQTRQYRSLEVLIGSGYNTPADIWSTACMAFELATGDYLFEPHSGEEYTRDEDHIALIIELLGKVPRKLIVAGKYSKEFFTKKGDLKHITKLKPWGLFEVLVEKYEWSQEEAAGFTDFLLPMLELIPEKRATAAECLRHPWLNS
Dual specificity protein kinase CLK3 (Homo sapiens), sequence (P49761 whole entry, looked up): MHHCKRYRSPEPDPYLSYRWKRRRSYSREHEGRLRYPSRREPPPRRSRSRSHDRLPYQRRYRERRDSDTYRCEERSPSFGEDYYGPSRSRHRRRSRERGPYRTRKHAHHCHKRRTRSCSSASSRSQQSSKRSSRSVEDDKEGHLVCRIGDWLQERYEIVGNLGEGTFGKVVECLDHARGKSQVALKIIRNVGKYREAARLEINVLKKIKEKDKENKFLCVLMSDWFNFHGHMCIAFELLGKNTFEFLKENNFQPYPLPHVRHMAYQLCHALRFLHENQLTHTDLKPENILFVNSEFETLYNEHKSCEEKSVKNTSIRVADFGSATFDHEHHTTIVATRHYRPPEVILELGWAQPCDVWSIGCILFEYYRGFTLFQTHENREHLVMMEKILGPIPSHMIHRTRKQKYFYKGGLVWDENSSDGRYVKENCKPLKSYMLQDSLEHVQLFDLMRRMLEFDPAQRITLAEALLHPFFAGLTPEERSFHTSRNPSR
Serine/threonine-protein kinase pim-1 (Homo sapiens), sequence (P11309 whole entry, looked up): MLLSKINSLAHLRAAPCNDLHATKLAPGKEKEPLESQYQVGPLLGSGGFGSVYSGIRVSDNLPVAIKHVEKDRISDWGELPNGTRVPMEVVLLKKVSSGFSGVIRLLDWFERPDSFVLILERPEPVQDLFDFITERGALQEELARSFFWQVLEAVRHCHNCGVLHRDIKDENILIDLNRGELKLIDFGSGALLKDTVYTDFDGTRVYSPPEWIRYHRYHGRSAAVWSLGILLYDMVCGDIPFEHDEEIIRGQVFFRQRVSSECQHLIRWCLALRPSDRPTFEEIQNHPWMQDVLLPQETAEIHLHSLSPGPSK
BDNF/NT-3 growth factors receptor (Homo sapiens), sequence (Q16620 32-822 limits assumed): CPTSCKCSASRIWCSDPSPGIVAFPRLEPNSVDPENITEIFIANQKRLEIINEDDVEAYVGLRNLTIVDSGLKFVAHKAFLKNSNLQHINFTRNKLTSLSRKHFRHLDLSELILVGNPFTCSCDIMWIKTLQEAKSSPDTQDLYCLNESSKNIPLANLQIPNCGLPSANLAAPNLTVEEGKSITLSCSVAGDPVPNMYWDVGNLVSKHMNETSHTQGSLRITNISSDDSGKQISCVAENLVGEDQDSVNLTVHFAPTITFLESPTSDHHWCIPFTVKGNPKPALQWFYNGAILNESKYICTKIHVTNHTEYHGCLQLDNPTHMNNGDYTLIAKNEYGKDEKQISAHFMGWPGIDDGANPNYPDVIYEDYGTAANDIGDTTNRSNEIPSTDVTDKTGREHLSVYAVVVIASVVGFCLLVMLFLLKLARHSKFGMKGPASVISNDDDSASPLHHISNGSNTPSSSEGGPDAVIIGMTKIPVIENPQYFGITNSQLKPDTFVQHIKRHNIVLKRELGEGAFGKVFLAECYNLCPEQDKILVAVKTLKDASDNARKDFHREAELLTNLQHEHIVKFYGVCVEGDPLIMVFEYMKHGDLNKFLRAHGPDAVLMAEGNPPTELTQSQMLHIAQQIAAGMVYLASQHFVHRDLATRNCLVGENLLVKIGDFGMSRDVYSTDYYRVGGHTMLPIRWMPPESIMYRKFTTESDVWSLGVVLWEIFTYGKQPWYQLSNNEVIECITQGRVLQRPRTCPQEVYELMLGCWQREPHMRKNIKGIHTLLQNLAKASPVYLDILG
Homeodomain-interacting protein kinase 1 (Homo sapiens), sequence (Q86Z02 whole entry, looked up): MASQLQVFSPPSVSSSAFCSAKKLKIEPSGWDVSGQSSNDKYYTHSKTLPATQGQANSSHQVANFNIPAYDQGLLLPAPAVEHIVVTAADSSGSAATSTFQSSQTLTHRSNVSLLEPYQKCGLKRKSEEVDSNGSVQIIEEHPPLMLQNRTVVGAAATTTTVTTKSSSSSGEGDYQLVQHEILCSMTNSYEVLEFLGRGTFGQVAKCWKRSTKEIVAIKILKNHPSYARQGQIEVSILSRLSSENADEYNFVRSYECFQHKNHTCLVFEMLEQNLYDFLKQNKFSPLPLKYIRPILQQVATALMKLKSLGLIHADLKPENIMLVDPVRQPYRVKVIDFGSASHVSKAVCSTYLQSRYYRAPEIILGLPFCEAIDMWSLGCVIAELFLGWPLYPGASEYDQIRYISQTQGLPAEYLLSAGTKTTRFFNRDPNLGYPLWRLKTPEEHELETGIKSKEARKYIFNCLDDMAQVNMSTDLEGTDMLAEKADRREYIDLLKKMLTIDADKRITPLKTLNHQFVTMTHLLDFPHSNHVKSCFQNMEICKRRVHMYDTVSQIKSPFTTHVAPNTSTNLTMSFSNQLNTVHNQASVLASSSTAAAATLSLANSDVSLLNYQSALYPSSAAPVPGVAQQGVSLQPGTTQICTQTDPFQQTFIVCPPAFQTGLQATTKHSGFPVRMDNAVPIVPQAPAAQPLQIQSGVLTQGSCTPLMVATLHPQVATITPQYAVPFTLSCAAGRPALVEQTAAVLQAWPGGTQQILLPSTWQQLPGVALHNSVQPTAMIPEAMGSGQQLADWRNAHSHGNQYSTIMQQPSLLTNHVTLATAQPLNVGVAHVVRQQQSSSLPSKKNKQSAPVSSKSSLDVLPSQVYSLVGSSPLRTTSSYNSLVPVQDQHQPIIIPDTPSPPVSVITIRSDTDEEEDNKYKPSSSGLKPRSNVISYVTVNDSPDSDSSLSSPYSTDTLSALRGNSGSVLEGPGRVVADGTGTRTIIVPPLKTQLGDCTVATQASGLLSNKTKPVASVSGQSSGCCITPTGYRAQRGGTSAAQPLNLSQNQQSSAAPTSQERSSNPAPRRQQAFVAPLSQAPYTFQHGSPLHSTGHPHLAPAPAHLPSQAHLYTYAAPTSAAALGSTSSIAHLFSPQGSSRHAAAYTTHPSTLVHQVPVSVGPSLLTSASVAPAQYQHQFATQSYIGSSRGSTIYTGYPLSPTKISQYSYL
Dual specificity protein kinase CLK4, sequence (Q9HAZ1 whole entry, looked up): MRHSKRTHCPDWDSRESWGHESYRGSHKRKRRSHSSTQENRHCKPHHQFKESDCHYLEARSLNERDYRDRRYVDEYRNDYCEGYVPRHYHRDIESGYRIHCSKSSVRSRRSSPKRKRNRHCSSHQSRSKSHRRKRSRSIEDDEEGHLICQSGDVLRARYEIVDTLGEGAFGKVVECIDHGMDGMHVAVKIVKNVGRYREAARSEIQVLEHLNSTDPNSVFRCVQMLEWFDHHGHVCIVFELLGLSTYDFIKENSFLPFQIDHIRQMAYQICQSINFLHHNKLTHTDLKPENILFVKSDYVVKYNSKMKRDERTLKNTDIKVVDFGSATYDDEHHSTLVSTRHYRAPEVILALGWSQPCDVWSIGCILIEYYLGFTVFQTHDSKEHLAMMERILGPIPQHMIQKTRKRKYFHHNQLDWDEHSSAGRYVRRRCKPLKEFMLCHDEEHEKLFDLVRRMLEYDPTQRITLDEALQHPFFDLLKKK

For `COc1ccc2sc(C(=O)NC(=O)c3ccc(OC)c(OC)c3)cc2c1`, the inhibition in [1] came out at 12.4%.

`COc1ccc2sc(C(=O)NC(=O)c3ccno3)cc2c1`: the inhibition in [1] turned out to be 12.1%.

With `COc1ccc2sc(C(=O)NC(=O)c3cc(C)cc(F)c3)cc2c1`, the inhibition in assay [1] came out at 51.8%.

Take `COc1ccc2sc(C(=O)NC(=O)c3ccc(Cl)cc3OC)cc2c1`: the inhibition in [1] was determined as 49.5%.

Turning to `COc1ccc2sc(C(=O)NC(=O)c3ccc(C)cc3OC)cc2c1`, in [1], the inhibition stood at 50.9%.

As for `COc1ccc2sc(C(=O)NC(=O)c3cccc(F)c3)cc2c1`, the inhibition in assay [1] was found to be 38.5%.

Consider `CCCOc1ccccc1C(=O)NC(=O)c1cc2cc(OC)ccc2s1`, for which, in assay [2], the IC50 came to 0.0898 µM. In assay [1], the inhibition was found to be 62.3%.

`COc1ccc2sc(C(=O)NC(=O)c3cc(F)ccc3F)cc2c1`: in assay [2], the IC50 is 0.07 µM. Also, in [1], the inhibition turned out to be 65.6%.

For `COc1ccc2sc(C(=O)NC(=O)c3cccc(Cl)n3)cc2c1`, the inhibition in assay [1] was 33%.

With `COc1ccc2sc(C(=O)NC(=O)c3ccccc3Cl)cc2c1`, the IC50 in [2] was 0.092 µM. The inhibition in assay [1] amounted to 61.4%.

As to `COc1ccc(F)c(C(=O)NC(=O)c2cc3cc(OC)ccc3s2)c1`, the inhibition in [1] was determined as 7.8%.

Consider `COc1ccc2sc(C(=O)NC(=O)c3ccc(OC)c(F)c3)cc2c1`, for which the inhibition in assay [1] is 5.9%.

For the compound `COc1ccc2sc(C(=O)NC(=O)c3cc(C(F)(F)F)ccc3OC)cc2c1`, in assay [1], the inhibition turned out to be 9.6%.

With `COc1ccc2sc(C(=O)NC(=O)c3ccc(F)cc3OC)cc2c1`, the 50% growth inhibitory concentration (GI50) in the assay on T-24 was over 15 µM. For the same compound, the inhibition in assay [3] was 48%; in assay [4] it was 47.1%; in the assay listed under Homo sapiens [5], 5%; in assay [6] it was 59%; in assay [7], 29%; in [9] it was 11%. Further, the inhibition is 7% in assay [10]; 96% in [12]; 10% in [13]; 4% in assay [14]; 52% in assay [15]; 74.5% in [1]. The IC50 in [2] is 0.004 µM; in [11], over 0.25 µM. For the same compound, in the assay filed under Homo sapiens [8], the Ratio IC50 was over 62.5.

As to `COc1ccc2sc(C(=O)NC(=O)c3cccc(Cl)c3OC)cc2c1`, in assay [1], the inhibition was determined as 2.2%.

As for `CC(C)(C)c1ccc(C(=O)Nc2cn3cc(-c4cn[nH]c4)ccc3n2)cn1`, in the assay filed under Homo sapiens [16], the Ratio IC50 was 2.2.

Take `COc1ccc2sc(C(=O)NC(=O)c3cc(F)cc(F)c3)cc2c1`: the inhibition in assay [1] was determined as 54.6%.

Regarding `COc1ccc(C(=O)NC(=O)c2cc3cc(OC)ccc3s2)c(OC)c1`, the GI50 with T-24 was over 15 µM. In assay [1], the inhibition is 42.2%.

With `COc1ccc2sc(C(=O)NC(=O)c3ccccc3C)cc2c1`, in [1], the inhibition is 6.5%.

For `CCOc1ccccc1C(=O)NC(=O)c1cc2cc(OC)ccc2s1`, the concentration for 50% growth inhibition (GI50) in the assay on T-24 is under 0.1 µM. In addition, the IC50 in assay [2] is 0.0794 µM. Also, the inhibition in [1] was 63.3%.

As to `COc1ccc(OC)c(C(=O)NC(=O)c2cc3cc(OC)ccc3s2)c1`, the inhibition in [1] turned out to be 30.8%.

For `COc1ccc2sc(C(=O)NC(=O)c3ccccc3OC)cc2c1`, in assay [2], the IC50 came to 0.0346 µM. In addition, the inhibition in assay [1] turned out to be 86.6%.

With `COc1ccc2sc(C(=O)NC(=O)c3ccccc3OC(F)(F)F)cc2c1`, the concentration for 50% growth inhibition (GI50) with T-24 came to 1.1 µM. Also, the IC50 in assay [2] came to 0.049 µM. In addition, the inhibition in [1] worked out at 64.4%.

On to `COc1ccc2sc(C(=O)NC(=O)c3cccc(F)n3)cc2c1`, for which the GI50 in the assay on T-24 is over 15 µM. The IC50 turned out to be 0.0209 µM in assay [2] and 0.25 µM in assay [11]. Besides, the inhibition is 53.8% in [4] and 67.1% in assay [1]. In the assay listed under Homo sapiens [8], the Ratio IC50 was 12.

For `COc1cccc(C(=O)NC(=O)c2cc3cc(OC)ccc3s2)c1`, the inhibition in assay [1] turned out to be 36.5%.

`COc1ccc2sc(C(=O)N(C)C(=O)c3ccccc3OC)cc2c1`: in assay [1], the inhibition was 15.7%.

For the compound `COc1ccc2sc(C(=O)NC(=O)c3ccccc3)cc2c1`, in assay [1], the inhibition amounted to 56.1%.

As for `COc1ccc2sc(C(=O)N(C)Cc3cc(F)cc(F)c3)cc2c1`, the Ratio IC50 was determined as 9.8 in the assay filed under Homo sapiens [17] and 28 in the assay filed under Homo sapiens [18].

In the case of `COc1ccc2sc(C(=O)NC(=O)c3cccc(OC)n3)cc2c1`, the inhibition in [1] was 42.3%.

As to `COc1ccc2sc(C(=O)NC(=O)c3cc(C)ccc3OC)cc2c1`, the inhibition in [1] was 42.7%.

For `COc1cc(F)c(C(=O)NC(=O)c2cc3cc(OC)ccc3s2)c(F)c1`, in assay [1], the inhibition came to 10.6%.

Turning to `COc1ccc2sc(C(=O)NC(=O)c3cc(F)ccc3OC)cc2c1`, the IC50 in assay [2] is 0.0184 µM; in assay [11], 0.25 µM. Moreover, the inhibition in [4] is 52.6%; in [1], 83.3%. Further, in the assay filed under Homo sapiens [8], the Ratio IC50 came to 13.6.

With `COc1ccc2sc(C(=O)NC(=O)c3cc(C)on3)cc2c1`, in assay [1], the inhibition was found to be 7.3%.

With `COc1ccc2sc(C(=O)NC(=O)c3ccccc3F)cc2c1`, the inhibition in [1] came to 16.5%.

Regarding `COc1ccc2sc(C(=O)NC(=O)c3cc(Cl)cnc3OC)cc2c1`, in assay [1], the inhibition came to 44.9%.

Regarding `COc1ccc2sc(C(=O)NC(=O)c3cccc4c3OC(F)(F)O4)cc2c1`, in assay [1], the inhibition came out at 43.1%.

For the compound `COc1ccc2sc(C(=O)NC(=O)c3ccc(Br)cc3OC)cc2c1`, the figures for the IC50 in assay [2] and in assay [11] were 0.075 µM and over 0.25 µM, respectively. Further, the inhibition was found to be 3.4% in assay [4] and 61% in assay [1]. Also, the Ratio IC50 in the assay listed under Homo sapiens [8] is over 3.3.

Take `COc1ccc2sc(C(=O)NC(=O)c3c(OC)cccc3OC)cc2c1`: the inhibition in assay [1] came out at 12.2%.

For the compound `COc1ccc2sc(C(=O)NC(=O)c3cccc(OC)c3OC)cc2c1`, in [1], the inhibition is 27.7%.

As for `COc1ccc2sc(C(=O)NC(=O)c3ccc(F)cc3)cc2c1`, the inhibition in assay [1] came out at 35.7%.

For the compound `COc1ccc2sc(C(=O)NC(=O)c3cccc4c3OCCO4)cc2c1`, the inhibition in assay [1] came out at 9.2%.
